From patent US7125955B2, “NIMA interacting proteins” (The Salk Institute for Biological Studies, priority 1995, dated 2006)

Biological target: T1, Pin1 (Homo sapiens, UniProt Q13526)
T1 construct: PTPI-PIN1 directs the synthesis of the native full length Pin1 protein; (His)6 (N); made in house; host or cells: E. coli BL21
Assay: PPIase assay: inhibition of Pin1 PPIase activity
Format: biochemical
Settings: even at 25 μM
Protocol: PPIase activity of the purified recombinant proteins was assayed using the procedure of Heitman et al. (Methods, 5:176, 1993) with the following exceptions. The reaction was carried out 5° C. and chymotrypsin was added just before the peptide substrate (N-Succ-Ala-Pro-Phe-p-nitroanilide, Sigma). The cis to trans isomerization was monitored every 6 seconds by a change in the absorbance at 395 nm using DMS 2000 UV and Visible Spectrophotometer (Varian). FKBP, cyclosporin A and FK520, a FK506 derivative, were gifts of D. Schultz and C. Zuker; University of California, San Diego.
Because of the strong sequence in similarity between Pin1 and the third PPIase family, Pin was tested to determine if Pin could catalyze the cis/trans isomerization of peptidyl-prolyl peptide bonds in vitro, a characteristic of PPIase. Pin1 was expressed in bacteria with an N-terminal (His)6 tag and was purified from bacteria using a […] agarose column. […] The isomerase activity was measured as described in Example 1. The cis to trans isomerization was monitored every 6 seconds by a change in the absorbance at 395 nm, with the finally stable absorbance of each sample being set at 1.0. Different concentrations of Pin1 were used as indicated, with the recombinant FK506-binding protein (FKBP) PPIase being used as a positive control. The control sample contained all the ingredients except the PPIase. […]

T1 sequence (Q13526 whole entry): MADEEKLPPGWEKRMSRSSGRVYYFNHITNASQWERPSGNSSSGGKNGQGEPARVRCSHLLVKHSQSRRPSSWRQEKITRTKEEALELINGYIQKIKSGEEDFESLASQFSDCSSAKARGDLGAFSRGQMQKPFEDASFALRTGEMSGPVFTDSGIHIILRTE

inhibition of the PPIase activity of Pin1: not inhibited
SMILES: CC[C@@H]1/C=C(\C)C[C@H](C)C[C@H](OC)[C@H]2O[C@@](O)(C(=O)C(=O)N3CCCC[C@H]3C(=O)O[C@H](/C(C)=C/[C@@H]3CC[C@@H](O)[C@H](OC)C3)[C@H](C)[C@@H](O)CC1=O)[C@H](C)C[C@@H]2OC [FK520]
